# From patent US10300058B2, “Tyrosine kinase inhibitor and uses thereof” (Xuanzhu Pharma Co., Ltd., priority 2014, dated 2019)
# Assays:
# [1] = system: H1975 cell (EGFR-T790M/L858R double mutation); assay: In vitro cytologic activity, Celltiter-Glo, H1975 cells; type: cell-based, human; conditions: for IC50: Homo sapiens, NCI-H1975, 72 h, 72 h, Celltiter-Glo
# Experimental: (§1) 1.1 Preparation of Cell Suspension
# (§2) Culture medium was removed from culture bottle;
# (§3) PBS was added to wash the cells; • pancreatin was added for digestion, and the cells were collected by centrifugation; • the cells were resuspended in a culture medium containing 10% fetal bovine serum, counted and adjusted to a concentration of 2×10^4/mL or 3×10^4/mL (cell viability must be greater than 90%); • the cell suspension was added to a 96-well plate, at 100 μL for each well, i.e., 2000/well for H1975 cell; 3000/well for A431 cell; and • the cells were cultured at 37° C. in 5% CO2 incubator overnight.
# (§4) Dilution of a compound in DMSO (or water for injection) • (1) The compound was 5-fold diluted with DMSO from 10 mM to 2 mM, and then 4-fold diluted from 2 mM, to get 10 concentrations; • High control (HC, control without compound inhibition): 0.5% DMSO; • Low control (LC, control with compound inhibition): 1000 nM.
# (§5) i. To each well, 99 μL growth medium containing 10% FBS was added, and then 1 μL diluted compound was added, the total volume of the well was […], and the final concentration of the compound was measured.
# (§6) The test plate was left at room temperature, and equilibrated for 30 min. 80 μL culture medium was discarded. 60 μL CTG reagent (Celltiter-Glo kit) was added, and shaked for 2 min in a fast shaker, and was placed at room temperature for 10 min. The values were read by Envision instrument.
# [2] = system: A431 cell (wild-type EGFR gene); assay: In vitro cytologic activity, Celltiter-Glo, A431 cells; type: cell-based; conditions: Homo sapiens, A-431, 72 h
# Experimental: as §1, §2, §3, §4, §5, §6
# [3] = Pharmacokinetics in nude mouse; type: in vivo; conditions: female, BALB/c nude, plasma
# Experimental: Test animal: female nude mouse (BALB/c), weight: 20-25 g/mouse.
# Solvent for intraveneous injection (iv): 5% DMSO+10% PEG400+85% (28% HP-β-CD)
# Solvent for intragastric administration (po): 2% HPC+0.1% Tween 80
# 0.1283 mL and 0.1059 mL 1M hydrochloric acid solution were separately added to adjust pH to 4.
# Compound 2, 27: Compound 27 (3.18 mg) and Compound 2 (3.17 mg) were weighed, respectively, and solvent for intraveneous injection was added to prepare a clear and transparent solution at a theoretical concentration of 1.0 mg/mL.
# After homogeneous dispersion, a suspension at a theoretical concentration of 1.0 mg/mL was obtained.
# Collection time point: 0.083 h, 0.25 h, 0.5 h, 1 h, 2 h, 4 h, 6 h, 8 h after administration.
# 60 μL whole blood was collected from intraocular canthus at each time point, and was centrifuged at 8000 r/min for 6 min in a low-temperature centrifuge to separate plasma; the plasma was stored in a refrigerator at −80° C.
# The plasma sample of Compound 2 was analyzed by means of protein precipitation: 10 μL plasma was transferred to a 1.5 mL EP tube, 10 μL blank plasma was added, and the mixture was mixed homogeneously under vortexing. 200 μL internal standard (acetonitrile solution containing 25 ng/mL CNX-2006) was added; the resultant mixture was vortexted for 3 min, and then centrifuged at 12000 rpm for 5 min; 150 μL supernatant was accurately taken, to which 50 μL purified water was added. The resultant mixture was vortexed for 3 min and analyzed by LC-MS/MS.
# [4] = system: H1975 human non-small cell lung cancer xenograft; assay: Pharmacodynamics in vivo, H1975 xenograft tumor-bearing nude mice; parameters: species or system BALB/c nude mouse; conditions: PO; for TV (tumor volume) / Body weight After administration / Body weight Before administration: mean ± standard error
# Description: Genus: Rodent, Line: BALB/c nude, age: 6-8 weeks, gender: female, body weight: 18-22 g. Provider of experimental animals: Beijing Ankaiyibo Biological Technology Co. Ltd., Production license No. SCXK(Jing) 2012-0009. Quality Certificate No. 11402400000256 […] The tumor cells in logarithmic growth phase were used in tumor inoculation in vivo. […] When the tumor grew into a volume of about 100 mm^3, the animals were grouped and administered, 8 mice per group. […] Test compound solutions were prepared immediately before administration every day. [table] Vernier caliper was used to measure the volume of tumor twice a week. The long diameter and short diameter of tumor were measured. The volume was calculated by the formula: volume=0.5×long diameter×short diameter^2. According to the measurement results, relative tumor volume (RTV) and relative tumor volume increasing rate (T/C) were calculated. RTV=Vt/V0, wherein Vt is the average value of tumor volume on day t after grouping and administration, V0 is the average value of tumor volume at the day when grouping. T/C=TRTV/CRTV×100%, wherein TRTV is the RTV in the treatment group, and CRTV is the RTV in the solvent control group. […] One-Way ANOVA test was carried out by SPSS17.0 statistic software. Tumor volume was analysed in statistics among groups. P<0.05 is indicative of significant difference.
# [5] = target: wild-type EGFR (WT EGFR) (Homo sapiens (Human), UniProt P00533); assay: Mobility Shift Assay, in vitro enzyme-inhibiting activity, wild-type EGFR; type: biochemical; conditions: Km ATP
# Experimental: (§7) 1. Preparation of Reagents
# (§8) 2. Preparation of a Compound Solution
# (§9) (1) To the second well of a 96-well plate, 5 μL 10 mM compound (dissolved in DMSO) was added, and 95 μL 100% DMSO was added to prepare 100 μL 0.5 mM compound.
# (§10) (2) To other wells, 60 μL 100% DMSO was added. 20 μL compound from the second well was added to the third well, and 4-fold dilution was further performed to get 10 diluted concentrations.
# (§11) (3) To the first well and the twelfth well of the 96-well plate, 100 μL 100% DMSO was separately added, and the two wells were used as control wells.
# (§12) (4) 10 μL from each well of the 96-well plate was added to another 96-well plate, and 90 μL 1-fold kinase buffer was added.
# (§13) (5) 5 μL from the 96-well plate was added to another 384-well plate, for example, transferred from A1 well of the 96-well plate to A1 and A2 wells of the 384-well plate, and transferred from A2 well of the 96-well plate to A3 and A4 wells of the 384-well plate, and so on.
# (§14) To 384-well plate, 10 μL 2.5-fold enzyme solution was added, and incubated at room temperature for 10 min.
# (§15) (5) Kinase reaction and stop
# (§16) After incubation at 28° C. for a period of time (depending on kinase), 25 μL stop solution was added.
# (§17) 4. Data on percent conversion was read by Caliper.
# (§18) (1) Data on enzyme activity was obtained by Caliper program;
# (§19) (2) Inhibition rate of enzyme activity was calculated from the data on enzyme activity by the following formula: Inhibition rate(%)=(maximal value−the measured value of a test compound)/(maximal value-minimal value)×100,
# (§20) wherein, the maximal value represents the measured value of DMSO control; and the minimal value represents the measured value of blank control.
# (§21) (3) Calculation of IC50 value by XLFit excel.
# [6] = target: EGFR T790M (Homo sapiens (Human), UniProt P00533, T790M); assay: Mobility Shift Assay, in vitro enzyme-inhibiting activity, EGFR T790M; type: biochemical; conditions: Table 1
# Experimental: as §7, §8, §9, §10, §11, §12, §13, §14, §15, §16, §17, §18, §19, §20, §21
# [7] = target: EGFR L858R (Homo sapiens (Human), UniProt P00533, L858R); assay: Mobility Shift Assay, in vitro enzyme-inhibiting activity, EGFR L858R; type: biochemical; conditions: Table 5
# Experimental: as §7, §8, §9, §10, §11, §12, §13, §14, §15, §16, §17, §18, §19, §20, §21
# [8] = target: EGFR T790M-L858R (Homo sapiens (Human), UniProt P00533, L858R/T790M); assay: Mobility Shift Assay, in vitro enzyme-inhibiting activity, EGFR T790M-L858R; type: biochemical; conditions: Table 5
# Experimental: as §7, §8, §9, §10, §11, §12, §13, §14, §15, §16, §17, §18, §19, §20, §21
# [9] = target: EGFR (d746-750) (Homo sapiens (Human), UniProt P00533, DEL746-750); assay: Mobility Shift Assay, in vitro enzyme-inhibiting activity, EGFR (d746-750); type: biochemical; conditions: Table 5
# Experimental: as §7, §8, §9, §10, §11, §12, §13, §14, §15, §16, §17, §18, §19, §20, §21
# Sequence of EGFR T790M-L858R (P00533 25-1210 T790M/L858R): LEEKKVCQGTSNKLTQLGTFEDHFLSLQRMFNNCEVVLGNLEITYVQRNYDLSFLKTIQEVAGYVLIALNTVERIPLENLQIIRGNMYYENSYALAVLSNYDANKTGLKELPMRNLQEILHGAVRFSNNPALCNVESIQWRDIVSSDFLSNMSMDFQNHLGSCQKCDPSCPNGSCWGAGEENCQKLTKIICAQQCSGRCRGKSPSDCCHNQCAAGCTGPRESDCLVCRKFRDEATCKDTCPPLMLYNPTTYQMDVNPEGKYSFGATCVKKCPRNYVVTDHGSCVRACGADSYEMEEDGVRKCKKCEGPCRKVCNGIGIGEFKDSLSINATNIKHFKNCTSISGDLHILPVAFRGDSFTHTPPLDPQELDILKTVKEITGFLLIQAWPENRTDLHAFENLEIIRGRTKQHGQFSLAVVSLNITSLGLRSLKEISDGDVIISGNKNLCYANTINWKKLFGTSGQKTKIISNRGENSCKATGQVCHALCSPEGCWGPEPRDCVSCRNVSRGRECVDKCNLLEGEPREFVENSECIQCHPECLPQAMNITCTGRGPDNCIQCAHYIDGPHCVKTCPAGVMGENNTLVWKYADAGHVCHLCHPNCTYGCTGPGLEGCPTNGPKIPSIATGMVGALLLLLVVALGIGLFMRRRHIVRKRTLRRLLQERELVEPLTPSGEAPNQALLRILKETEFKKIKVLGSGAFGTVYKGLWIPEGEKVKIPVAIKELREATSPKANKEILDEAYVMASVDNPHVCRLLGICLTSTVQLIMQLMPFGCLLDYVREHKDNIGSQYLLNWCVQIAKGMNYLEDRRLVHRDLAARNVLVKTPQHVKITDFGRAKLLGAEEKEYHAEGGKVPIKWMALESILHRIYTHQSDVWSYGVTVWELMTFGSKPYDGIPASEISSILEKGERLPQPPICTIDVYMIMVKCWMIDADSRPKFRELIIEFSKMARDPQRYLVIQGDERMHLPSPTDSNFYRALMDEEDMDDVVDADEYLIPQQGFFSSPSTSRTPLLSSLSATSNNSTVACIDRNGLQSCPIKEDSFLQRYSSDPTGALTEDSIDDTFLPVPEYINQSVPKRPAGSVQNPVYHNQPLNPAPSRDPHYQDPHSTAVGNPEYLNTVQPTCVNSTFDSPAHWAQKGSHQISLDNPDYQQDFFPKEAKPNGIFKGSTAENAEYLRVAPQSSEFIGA
# Sequence of EGFR (d746-750) (P00533 other isoform, or with tags, fused parts or gaps del 1-668/del 746-750 limits assumed): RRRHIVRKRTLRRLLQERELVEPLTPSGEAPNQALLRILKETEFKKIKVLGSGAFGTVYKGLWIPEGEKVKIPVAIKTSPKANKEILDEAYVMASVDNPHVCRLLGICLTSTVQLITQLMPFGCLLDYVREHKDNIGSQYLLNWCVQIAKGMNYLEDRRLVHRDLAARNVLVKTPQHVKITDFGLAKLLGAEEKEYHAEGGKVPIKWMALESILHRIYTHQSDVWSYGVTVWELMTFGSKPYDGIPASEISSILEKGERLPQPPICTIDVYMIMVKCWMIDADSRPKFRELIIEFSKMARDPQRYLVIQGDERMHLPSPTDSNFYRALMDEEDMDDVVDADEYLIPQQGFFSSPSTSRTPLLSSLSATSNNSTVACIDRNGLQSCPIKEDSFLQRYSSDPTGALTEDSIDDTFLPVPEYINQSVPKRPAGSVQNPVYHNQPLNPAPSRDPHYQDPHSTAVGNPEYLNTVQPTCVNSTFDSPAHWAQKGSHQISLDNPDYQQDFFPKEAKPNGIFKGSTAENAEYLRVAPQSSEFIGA
# Sequence of EGFR L858R (P00533 25-1210 L858R): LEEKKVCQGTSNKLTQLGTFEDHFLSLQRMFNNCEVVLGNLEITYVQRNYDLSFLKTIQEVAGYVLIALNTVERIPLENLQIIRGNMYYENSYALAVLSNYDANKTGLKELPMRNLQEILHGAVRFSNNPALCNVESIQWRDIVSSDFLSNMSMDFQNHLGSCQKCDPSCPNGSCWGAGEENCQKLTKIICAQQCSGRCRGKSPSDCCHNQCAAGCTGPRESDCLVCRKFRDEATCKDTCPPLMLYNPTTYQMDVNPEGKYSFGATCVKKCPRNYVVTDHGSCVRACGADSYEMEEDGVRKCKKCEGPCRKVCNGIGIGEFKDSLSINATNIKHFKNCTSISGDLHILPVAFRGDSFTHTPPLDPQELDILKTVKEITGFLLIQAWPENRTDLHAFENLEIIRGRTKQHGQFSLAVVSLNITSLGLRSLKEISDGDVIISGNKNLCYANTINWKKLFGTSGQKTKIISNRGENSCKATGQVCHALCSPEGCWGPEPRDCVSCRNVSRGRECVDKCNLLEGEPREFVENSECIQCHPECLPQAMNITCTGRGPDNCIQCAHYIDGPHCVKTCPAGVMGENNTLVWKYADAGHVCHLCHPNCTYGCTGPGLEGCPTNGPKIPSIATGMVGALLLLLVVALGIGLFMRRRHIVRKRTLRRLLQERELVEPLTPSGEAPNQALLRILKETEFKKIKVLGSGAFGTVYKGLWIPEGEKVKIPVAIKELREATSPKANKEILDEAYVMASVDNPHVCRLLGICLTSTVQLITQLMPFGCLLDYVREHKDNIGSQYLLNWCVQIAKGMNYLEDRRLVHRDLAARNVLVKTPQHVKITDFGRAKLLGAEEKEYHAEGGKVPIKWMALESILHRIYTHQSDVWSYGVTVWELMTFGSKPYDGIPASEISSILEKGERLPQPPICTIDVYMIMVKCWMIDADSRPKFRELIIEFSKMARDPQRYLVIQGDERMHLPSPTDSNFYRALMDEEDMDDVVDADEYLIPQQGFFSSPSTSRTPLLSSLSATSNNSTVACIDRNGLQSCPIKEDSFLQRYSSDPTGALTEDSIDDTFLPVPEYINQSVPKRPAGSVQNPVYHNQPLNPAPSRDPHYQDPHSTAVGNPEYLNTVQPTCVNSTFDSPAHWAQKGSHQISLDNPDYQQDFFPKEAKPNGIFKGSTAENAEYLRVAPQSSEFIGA
# Sequence of EGFR T790M (P00533 25-1210 T790M): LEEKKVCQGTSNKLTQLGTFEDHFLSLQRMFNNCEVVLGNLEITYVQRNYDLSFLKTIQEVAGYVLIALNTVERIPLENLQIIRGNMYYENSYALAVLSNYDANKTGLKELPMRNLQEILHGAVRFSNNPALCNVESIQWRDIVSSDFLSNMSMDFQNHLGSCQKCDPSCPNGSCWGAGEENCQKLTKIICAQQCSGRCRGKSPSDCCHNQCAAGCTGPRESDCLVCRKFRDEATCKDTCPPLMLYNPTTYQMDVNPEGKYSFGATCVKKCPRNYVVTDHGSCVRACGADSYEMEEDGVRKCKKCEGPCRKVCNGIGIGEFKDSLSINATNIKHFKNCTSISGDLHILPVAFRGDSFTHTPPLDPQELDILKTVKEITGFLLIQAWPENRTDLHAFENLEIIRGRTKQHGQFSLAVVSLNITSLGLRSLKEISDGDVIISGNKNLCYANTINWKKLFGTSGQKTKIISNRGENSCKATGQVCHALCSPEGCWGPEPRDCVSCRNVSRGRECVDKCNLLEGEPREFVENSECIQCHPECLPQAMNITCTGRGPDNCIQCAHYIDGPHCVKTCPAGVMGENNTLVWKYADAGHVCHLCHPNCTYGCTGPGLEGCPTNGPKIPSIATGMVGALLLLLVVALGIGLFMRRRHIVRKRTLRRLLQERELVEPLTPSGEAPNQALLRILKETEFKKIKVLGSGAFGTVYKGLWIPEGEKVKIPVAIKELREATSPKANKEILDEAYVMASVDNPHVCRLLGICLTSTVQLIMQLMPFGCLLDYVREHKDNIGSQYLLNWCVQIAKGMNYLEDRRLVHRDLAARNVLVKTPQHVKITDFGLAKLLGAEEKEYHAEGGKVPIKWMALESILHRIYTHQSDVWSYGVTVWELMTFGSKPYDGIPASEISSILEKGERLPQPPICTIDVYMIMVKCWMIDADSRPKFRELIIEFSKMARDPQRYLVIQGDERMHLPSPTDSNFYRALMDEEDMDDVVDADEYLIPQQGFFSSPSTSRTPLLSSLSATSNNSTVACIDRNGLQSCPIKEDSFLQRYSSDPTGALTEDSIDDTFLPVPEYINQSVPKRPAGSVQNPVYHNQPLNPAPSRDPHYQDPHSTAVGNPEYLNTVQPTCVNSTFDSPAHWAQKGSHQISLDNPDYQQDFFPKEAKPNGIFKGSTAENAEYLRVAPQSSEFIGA
smiles,measurement,setting,value
"C=CC(=O)Nc1cccc(Nc2nc(Nc3ccc(N4CCN(C(C)=O)CC4)cc3OC)ncc2C(F)(F)F)c1 [CO-1686, reference compound]",IC50,[1]; Table 9,107 nM
same,IC50,"[1]; Table 10, unit inferred",465 nM
same,IC50,[2]; Table 9,911 nM
same,IC50,"[2]; Table 10, unit inferred",2250 nM
same,AUC(0-t),"[3]; iv, 5 mg/kg",4070 ng·h/mL
same,clearance,"[3]; iv, 5 mg/kg",20.5 mL/min/kg
same,AUC(0-t),"[3]; po, 13.2 mg/kg",2380 ng·h/mL
same,bioavailability,"[3]; po, 13.2 mg/kg, read-out: F (absolute bioavailability)",22.1%
same,TGI (tumor growth-inhibiting rate),"[4]; Table 17, 30 mg/kg",38.8%
same,TV (tumor volume),"[4]; Table 17, 30 mg/kg, 19 days after inoculation",666 ± 30 mm^3
same,Body weight After administration,"[4]; Table 17, 30 mg/kg",22.1 ± 0.3 g
same,Body weight Before administration,"[4]; Table 17, 30 mg/kg",20.6 ± 0.3 g
same,TGI (tumor growth-inhibiting rate),"[4]; Table 17, 100 mg/kg",71.2%
same,TV (tumor volume),"[4]; Table 17, 100 mg/kg, 19 days after inoculation",317 ± 44 mm^3
same,Body weight After administration,"[4]; Table 17, 100 mg/kg",21.5 ± 0.5 g
same,Body weight Before administration,"[4]; Table 17, 100 mg/kg",20.6 ± 0.4 g
same,TGI (tumor growth-inhibiting rate),"[4]; Table 18, 10 mg/kg, QD × 18",30.8%
same,TV (tumor volume),"[4]; Table 18, 10 mg/kg, QD × 18, 23 days after inoculation",729 ± 78 mm^3
same,Body weight After administration,"[4]; Table 18, 10 mg/kg, QD × 18",22.4 ± 0.5 g
same,Body weight Before administration,"[4]; Table 18, 10 mg/kg, QD × 18",20.7 ± 0.4 g
same,TGI (tumor growth-inhibiting rate),"[4]; Table 18, 30 mg/kg, QD × 18",55.4%
same,TV (tumor volume),"[4]; Table 18, 30 mg/kg, QD × 18, 23 days after inoculation",485 ± 65 mm^3
same,Body weight After administration,"[4]; Table 18, 30 mg/kg, QD × 18",22.4 ± 0.3 g
same,Body weight Before administration,"[4]; Table 18, 30 mg/kg, QD × 18",21.8 ± 0.3 g
"C=CC(=O)Nc1cccc(Nc2nc(Nc3ccc(N4CCN(C(C)=O)CC4)cc3OC)ncc2C(F)(F)F)n1 [Compound 1, N-(6-((2-((4-(4-acetylpiperazin-1-yl)-2-methoxyphenyl)amino)-5-(trifluoromethyl)pyrimidin-4-yl)amino)pyridin-2-yl)acrylamide]",IC50,[5]; Table 1,323 nM
same,IC50,[5]; Table 5,240 nM
same,IC50,[6]; Km ATP,5.7 nM
same,Selectivity (WT/T790M),[6]; ratio of IC50,56.7
same,IC50,[7]; Km ATP,84.7 nM
same,Selectivity WT/L858R,[7]; ratio of IC50,2.8
same,IC50,[8]; Km ATP,4.4 nM
same,Selectivity WT/T790M-L858R,[8]; ratio of IC50,54.3
same,IC50,[9]; Km ATP,20.3 nM
same,Selectivity WT/d746-750,[9]; ratio of IC50,11.8
same,IC50,[1]; Table 9,54.2 nM
same,Selectivity (A431/H1975),"[1]; Table 9, ratio of IC50",8.3
same,IC50,[2]; Table 9,448 nM
